Results published in patent publication US9079858B2, “Rock kinase inhibitors” (Amakem NV, priority 2011, dated 2015).

Columns and labels:
[1] = Pharmacokinetics after intravenous and oral administration in mice; type: in vivo, male CD-1 mice
Experimental: The bioavailability of compound 1 was evaluated after intravenous and oral dosing in male CD-1 mice. The compound was dosed at 0.1 mg/kg intravenously and 1 mg/kg orally. Plasma levels were determined by LC-MS/MS and pharmacokinetic parameters were estimated by a non-compartmental model using WinNonlin v5.2.1 software.

[2] = Stability assay in rabbit vitreous humor; type: in vitro ADME; details: 1 μM in rabbit vitreous; for half-life at 1 μM: rabbit vitreous humor, read-out: t½ Rabbit VH
Experimental: (§1) Compounds are incubated at a concentration of 1 μM in rabbit aqueous humor (AH) or rabbit vitreous (VH). Samples are taken at fixed time points and the remnant of compound is determined by LC-MS/MS after protein precipitation.

[3] = Stability assay in rabbit aqueous humor; type: in vitro ADME; details: 1 μM in rabbit aqueous humor; for half-life at 1 μM: read-out: t½ Rabbit AH
Experimental: as §1

human hepatocytes = assay: Stability assay in human hepatocytes; type: in vitro ADME; details: 1 μM
Experimental: Compounds are incubated at a concentration of 1 μM with human hepatocytes (2 10^6 cells/ml in buffer solution). At fixed time points (ex: 1, 30, 60 & 120 minutes), an incubation mixture (200 μl) is cooled down on ice and 100 μl of acetonitrile is added. After vortex-mixing, the sample is centrifuged for 5 minutes at 16000 rpm. The remnant of compound in each sample is determined by LC-PDA-MS/MS analysis and half-life of the compound is subsequently calculated. Formation of the acid metabolite resulting from ester hydrolysis can be performed simultaneously. Peak areas for appearance of the acid are first recorded, and the corresponding concentrations are then back-calculated from calibration curve.
When evaluated under such conditions, compounds of the invention are rapidly degraded in the corresponding acid (primary metabolite).

## COC(=O)c1ccc(NC(=O)c2cccc(-c3cc(C(=O)Nc4ccncc4F)ccc3CN)c2)cc1 [Compound 1, methyl 4-({3-[2-(aminomethyl)-5-[(3-fluoropyridin-4-yl)carbamoyl]phenyl]phenyl}amido)benzoate]
[1]; intravenous 0.1 mg/kg
  AUClast (intravenous exposure): 4.82 ± 0.276 ng·h/mL
  clearance: 15.4 L/h/kg
  volume of distribution: 100 L/kg
[1]; intravenous 0.1 mg/kg, mouse plasma
  Cmax: 0.0163 µg/mL
[1]; mice, intravenous and oral
  metabolism and excretion in words: rapidly metabolized and excreted from the body very rapidly
[1]; oral 1 mg/kg
  AUClast: 6.20 ± 5.50 ng·h/mL
  Cmax: 0.0224 ± 0.022 µg/mL
[1]; oral 1 mg/kg vs intravenous 0.1 mg/kg
  percent oral bioavailability: 12.9%
[2]
  t½ Rabbit VH: >1 h
[3]
  t½ Rabbit AH: >1 h
Human hepatocytes
  t1/2 in human hepatocytes: 0.233 h
Human hepatocytes; time 1 min
  % remaining: 100.0%
Human hepatocytes; time 30 min
  % remaining: 16.0 +/− 0.4%
Human hepatocytes; time 60 min
  % remaining: 4.8 +/− 0.1%
Human hepatocytes; time 120 min
  % remaining: 2.4 +/− 1.3%

## COC(=O)c1ccc(NC(=O)c2cccc(-c3cc(C(=O)Nc4ccncc4F)ccc3CN)c2)c(F)c1 [Compound 2, methyl 4-({3-[2-(aminomethyl)-5-[(3-fluoropyridin-4-yl)carbamoyl]phenyl]phenyl}amido)-3-fluorobenzoate]
[2]
  t½ Rabbit VH: >1 h
[3]
  t½ Rabbit AH: >1 h

## COC(=O)c1ccc(NC(=O)c2cccc(-c3cc(C(=O)Nc4ccncc4F)ccc3CN)c2)cc1F [Compound 3, methyl 4-({3-[2-(aminomethyl)-5-[(3-fluoropyridin-4-yl)carbamoyl]phenyl]phenyl}amido)-2-fluorobenzoate]
[2]
  t½ Rabbit VH: >1 h
[3]
  t½ Rabbit AH: >1 h

## CCCOC(=O)c1ccc(NC(=O)c2cccc(-c3cc(C(=O)Nc4ccncc4F)ccc3CN)c2)c(F)c1 [Compound 4, propyl 4-({3-[2-(aminomethyl)-5-[(3-fluoropyridin-4-yl)carbamoyl]phenyl]phenyl}amido)-3-fluorobenzoate]
[2]
  t½ Rabbit VH: >1 h
[3]
  t½ Rabbit AH: >1 h

## COC(=O)c1ccc(NC(=O)c2cccc(-c3cc(C(=O)Nc4ccncc4F)ccc3CN)c2)cc1C [Compound 5, methyl 4-({3-[2-(aminomethyl)-5-[(3-fluoropyridin-4-yl)carbamoyl]phenyl]phenyl}amido)-2-methylbenzoate]
[2]
  t½ Rabbit VH: >1 h
[3]
  t½ Rabbit AH: >1 h

## CCCOC(=O)c1ccc(NC(=O)c2cccc(-c3cc(C(=O)Nc4ccncc4F)ccc3CN)c2)cc1C [Compound 6, propyl 4-({3-[2-(aminomethyl)-5-[(3-fluoropyridin-4-yl)carbamoyl]phenyl]phenyl}amido)-2-methylbenzoate]
[2]
  t½ Rabbit VH: >1 h
[3]
  t½ Rabbit AH: >1 h

## COC(=O)c1ccc(C(=O)Nc2cccc(-c3cc(C(=O)Nc4ccncc4F)ccc3CN)c2)cc1 [Compound 7, methyl 4-({3-[2-(aminomethyl)-5-[(3-fluoropyridin-4-yl)carbamoyl]phenyl]phenyl}carbamoyl)benzoate]
[2]
  half-life at 1 μM: > 1 h
[3]
  half-life at 1 μM: > 1 h

## COC(=O)c1ccc(C(=O)Nc2cccc(-c3cc(C(=O)Nc4ccncc4F)ccc3CN)c2)nc1 [Compound 8, methyl 6-({3-[2-(aminomethyl)-5-[(3-fluoropyridin-4-yl)carbamoyl]phenyl]phenyl}carbamoyl)pyridine-3-carboxylate]
[2]
  half-life at 1 μM: > 1 h
[3]
  half-life at 1 μM: > 1 h

## COCCOC(=O)c1ccc(NC(=O)c2cccc(-c3cc(C(=O)Nc4ccncc4F)ccc3CN)c2)cc1 [Compound 9, 2-methoxyethyl 4-({3-[2-(aminomethyl)-5-[(3-fluoropyridin-4-yl)carbamoyl]phenyl]phenyl}amido)benzoate]
[2]
  t½ Rabbit VH: >1 h
[3]
  t½ Rabbit AH: >1 h

## NCc1ccc(C(=O)Nc2ccncc2F)cc1-c1cccc(C(=O)Nc2ccc(C(=O)OCC3CCCO3)cc2)c1 (stereo not drawn) [Compound 10, oxolan-2-ylmethyl 4-({3-[2-(aminomethyl)-5-[(3-fluoropyridin-4-yl)carbamoyl]phenyl]phenyl}amido)benzoate]
[2]
  t½ Rabbit VH: >1 h
[3]
  t½ Rabbit AH: >1 h
